Read-outs that look alike come from different tables or passages of the source.

Common to all, as to type: cell-based
One assay has as its target hGLP-1R (Homo sapiens, UniProt P43220). The experiment in a line: Functional cAMP formation (HTRF) in HEK-293 clonal cells expressing hGLP-1R, 0.1% bovine casein, without or with 1.0% human serum albumin. Also on record: expressed in transfected cells. As to conditions: for EC50: read-out: hGLP-1R EC50, nM (SEM, n); for Emax: read-out: hGLP-1R Emax, % ± SEM. The gist of the method: (§1)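 Readings of the HTRF 665/620 nm ratio, which falls as cAMP rises, were converted to nM cAMP using a standard curve after 30 min peptide exposure at 37° C.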

The target in the next assay is T1, hGCGR (Homo sapiens, UniProt P47871).
T1 construct: expressed in transfected cells
The assay can be described thus: Functional cAMP formation (HTRF) in HEK-293 clonal cells expressing hGCGR, 0.1% bovine casein, without or with 1.0% human serum albumin. As to conditions: read-out: hGCGR EC50, nM (SEM, n). The procedure, abridged: as §1
A general note: Cyclic AMP is a second messenger, typically raised through Gs and lowered through Gi signalling.

The next assay addresses T2, hGIPR (Homo sapiens, UniProt P48546).
T2 construct: expressed in transfected cells
T2 sequence (P48546 22-466): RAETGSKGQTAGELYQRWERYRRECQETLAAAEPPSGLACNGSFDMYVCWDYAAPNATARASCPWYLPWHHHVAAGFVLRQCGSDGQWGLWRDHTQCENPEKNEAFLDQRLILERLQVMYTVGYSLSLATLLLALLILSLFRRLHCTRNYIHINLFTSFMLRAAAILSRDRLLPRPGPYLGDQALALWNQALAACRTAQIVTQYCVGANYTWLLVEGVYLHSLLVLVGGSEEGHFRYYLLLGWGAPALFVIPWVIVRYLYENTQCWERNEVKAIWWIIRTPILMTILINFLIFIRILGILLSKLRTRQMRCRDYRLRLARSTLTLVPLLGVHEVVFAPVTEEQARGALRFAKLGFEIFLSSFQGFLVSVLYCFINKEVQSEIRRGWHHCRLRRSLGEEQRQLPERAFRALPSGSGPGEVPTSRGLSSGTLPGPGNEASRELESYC
The experiment in a line: Functional cAMP formation (HTRF) in HEK-293 clonal cells expressing hGIPR, 0.1% bovine casein, without or with 1.0% human serum albumin. As to conditions: for EC50: read-out: hGIPR EC50, nM (SEM, n); for Emax: read-out: hGIPR Emax, % ± SEM. The procedure, abridged:
as §1

Setting [1] is: 0.1% bovine casein and 1.0% human serum albumin, 37° C., geometric mean.
The mark [2] stands for this setting: cAMP, incubated at 37° C., 0.1% bovine casein (no human serum albumin), geometric mean.
Where [3] appears, read: HEK293, 0.1% bovine casein and 1.0% human serum albumin, 37° C., percent of maximal response to GIP(1-42)NH2.
[4] abbreviates: cAMP, 37° C., 0.1% bovine casein (no human serum albumin), geometric mean.
[5] abbreviates: HEK293, cAMP, 37° C., 0.1% bovine casein, percent of maximal response to GLP-1(7-36)NH2, arithmetic mean.
[6] abbreviates: cAMP, 37° C., 0.1% bovine casein and 1.0% human serum albumin, geometric mean (SEM, n).
The mark [7] stands for this setting: HEK293, cAMP, 37° C., 0.1% bovine casein and 1.0% human serum albumin, percent of maximal response to GIP(1-42)NH2.
[8] abbreviates: HEK293, cAMP, 37° C., 0.1% bovine casein, percent of maximal response to GIP(1-42)NH2, arithmetic mean.

T1 sequence (P47871 26-477): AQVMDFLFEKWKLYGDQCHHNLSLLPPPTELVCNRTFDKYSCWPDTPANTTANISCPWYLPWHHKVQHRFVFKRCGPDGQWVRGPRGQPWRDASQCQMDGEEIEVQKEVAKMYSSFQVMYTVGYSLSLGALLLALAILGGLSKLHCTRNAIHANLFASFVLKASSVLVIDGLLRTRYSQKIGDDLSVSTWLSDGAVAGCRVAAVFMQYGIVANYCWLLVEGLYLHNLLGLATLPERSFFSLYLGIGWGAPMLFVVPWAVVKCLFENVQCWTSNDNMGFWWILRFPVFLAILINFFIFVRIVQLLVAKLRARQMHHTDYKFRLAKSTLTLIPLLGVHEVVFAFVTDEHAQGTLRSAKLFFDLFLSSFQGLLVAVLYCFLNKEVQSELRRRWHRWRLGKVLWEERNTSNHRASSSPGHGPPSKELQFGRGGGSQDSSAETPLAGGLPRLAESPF
Chain of hGLP-1R (P43220 24-463): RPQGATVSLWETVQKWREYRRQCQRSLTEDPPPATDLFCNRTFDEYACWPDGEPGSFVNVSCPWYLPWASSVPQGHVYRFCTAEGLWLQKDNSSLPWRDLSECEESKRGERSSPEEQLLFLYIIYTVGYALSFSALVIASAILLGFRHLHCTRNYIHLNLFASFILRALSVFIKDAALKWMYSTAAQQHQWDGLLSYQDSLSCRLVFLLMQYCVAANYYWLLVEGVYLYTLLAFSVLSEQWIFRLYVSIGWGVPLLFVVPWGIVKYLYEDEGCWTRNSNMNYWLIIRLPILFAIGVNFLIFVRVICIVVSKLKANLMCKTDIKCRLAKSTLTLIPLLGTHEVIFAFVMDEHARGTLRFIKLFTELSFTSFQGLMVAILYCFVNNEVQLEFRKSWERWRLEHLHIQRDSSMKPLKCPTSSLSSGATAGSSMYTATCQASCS

Turning to `CCCCCCCCCCCC(=O)N[C@@H](CCC(=O)NCCOCCOCC(=O)NCCOCCOCC(=O)NCCCC[C@H](NC(=O)CNC(=O)CNC(=O)[C@H](CCC(=O)O)NC(=O)[C@@H](NC(=O)[C@H](CC(C)C)NC(=O)[C@](C)(Cc1ccc(O)cc1)NC(=O)[C@@H](CCC(=O)O)NC(=O)[C@@H](NC(=O)[C@](C)(Cc1ccccc1)NC(=O)[C@H](CCC(=O)O)NC(=O)C(C)(C)NC(=O)[C@H](CCC(N)=O)NC(=O)[C@H](C)NC(=O)[C@H](CCCCNC(=O)COCCOCCNC(=O)COCCOCCNC(=O)CC[C@H](NC(=O)CCCCCCCCCCC)C(=O)O)NC(=O)[C@H](CCCN)NC(=O)[C@H](CC(=O)O)NC(=O)[C@H](CC(C)C)NC(=O)[C@](C)(CC(C)C)NC(=O)[C@@H](NC(=O)[C@H](CO)NC(=O)[C@H](Cc1ccncc1)NC(=O)[C@H](CC(=O)O)NC(=O)[C@H](CO)NC(=O)[C@@H](NC(=O)[C@](C)(Cc1ccccc1)NC(=O)[C@@H](NC(=O)CNC(=O)[C@H](CCC(=O)O)NC(=O)C(C)(C)NC(=O)[C@@H](N)Cc1ccc(O)cc1)[C@@H](C)O)[C@@H](C)O)[C@@H](C)CC)[C@@H](C)CC)[C@@H](C)CC)C(=O)N[C@@H](CO)C(=O)N[C@@H](CO)C(=O)NCC(=O)N[C@@H](C)C(=O)N1CCC[C@H]1C(=O)N1CCC[C@H]1C(=O)N1CCC[C@H]1C(=O)N[C@@H](CO)C(N)=O)C(=O)O` [Example 173], the 50% effective concentration (EC50) at hGLP-1R (setting [1]) was 29.7 nM; at hGLP-1R (setting [2]) it was 0.343 nM; on hGCGR (setting [1]), > 9950 nM; on hGCGR (setting [2]), > 9950 nM; at hGIPR (setting [1]) it was 1.24 nM; at hGIPR (setting [2]), 0.0155 nM. The Emax on hGLP-1R (HEK293, percent of maximal response to GLP-1(7-36)NH2, 37° C., 0.1% bovine casein, arithmetic mean) came out at 89.9 ± 2.72%; on hGIPR (setting [3]), 92.9 ± 6.91%; on hGIPR (HEK293, percent of maximal response to GIP(1-42)NH2, 37° C., 0.1% bovine casein, arithmetic mean) it was 87.8 ± 6.22%.

Consider `CCCC[C@H](NC(=O)[C@H](CC(=O)O)NC(=O)[C@H](CO)NC(=O)[C@@H](NC(=O)[C@](C)(Cc1ccccc1F)NC(=O)[C@@H](NC(=O)CNC(=O)[C@H](CCC(=O)O)NC(=O)C(C)(C)NC(=O)[C@@H](N)Cc1ccc(O)cc1)[C@@H](C)O)[C@@H](C)O)C(=O)N[C@@H](CO)C(=O)N[C@H](C(=O)N[C@@](C)(CC(C)C)C(=O)N[C@@H](CC(C)C)C(=O)N[C@@H](CC(=O)O)C(=O)N[C@@H](CCCN)C(=O)N[C@@H](CCCCNC(=O)COCCOCCNC(=O)COCCOCCNC(=O)CCCCCCCCCCCCC(=O)O)C(=O)N[C@@H](C)C(=O)N[C@@H](CCC(N)=O)C(=O)NC(C)(C)C(=O)N[C@@H](CCCCNC(=O)COCCOCCNC(=O)COCCOCCNC(=O)CCCCCCCCCCCCC(=O)O)C(=O)N[C@@H](Cc1ccccc1)C(=O)N[C@H](C(=O)N[C@H](CCC(=O)O)C(=O)N[C@@](C)(Cc1ccc(O)cc1)C(=O)N[C@@H](CC(C)C)C(=O)N[C@H](C(=O)N[C@@H](CCC(=O)O)C(=O)NCC(=O)NCC(=O)N1CCC[C@H]1C(=O)N[C@@H](CO)C(=O)N[C@@H](CO)C(=O)NCC(=O)N[C@@H](C)C(=O)N1CCC[C@H]1C(=O)N1CCC[C@H]1C(=O)N1CCC[C@H]1C(=O)N[C@@H](CO)C(N)=O)[C@@H](C)CC)[C@@H](C)CC)[C@@H](C)CC` [Example 271], for which the EC50 is 10.2 nM on hGLP-1R (setting [1]), > 9950 nM on hGCGR (setting [1]), > 9950 nM on hGCGR (setting [4]) and 0.0186 nM at hGIPR (setting [4]). Moreover, the maximal response (Emax) at hGLP-1R (HEK293, 0.1% bovine casein and 1.0% human serum albumin, 37° C., percent of maximal response to GLP-1(7-36)NH2) was 122%; on hGIPR (setting [3]) it was 97.3%.

Regarding `CC[C@H](C)[C@H](NC(=O)[C@H](CC(C)C)NC(=O)[C@](C)(Cc1ccc(O)cc1)NC(=O)[C@@H](CCC(=O)O)NC(=O)[C@@H](NC(=O)[C@H](Cc1ccccc1)NC(=O)[C@H](CCC(=O)O)NC(=O)C(C)(C)NC(=O)[C@H](CCC(N)=O)NC(=O)[C@H](C)NC(=O)[C@H](CCCCNC(=O)COCCOCCNC(=O)COCCOCCNC(=O)CCCCCCCCCCCCC(=O)O)NC(=O)[C@H](CCCN)NC(=O)[C@H](CC(=O)O)NC(=O)[C@H](CC(C)C)NC(=O)[C@](C)(CC(C)C)NC(=O)[C@@H](NC(=O)C(C)(C)NC(=O)[C@@H](NC(=O)[C@H](CC(=O)O)NC(=O)[C@H](CO)NC(=O)[C@@H](NC(=O)[C@](C)(Cc1ccccc1F)NC(=O)[C@@H](NC(=O)CNC(=O)[C@H](CCC(=O)O)NC(=O)C(C)(C)NC(=O)[C@@H](N)Cc1ccc(O)cc1)[C@@H](C)O)[C@@H](C)O)C(C)C)[C@@H](C)CC)[C@@H](C)CC)C(=O)N[C@@H](CCCCNC(=O)COCCOCCNC(=O)COCCOCCNC(=O)CCCCCCCCCCCCC(=O)O)C(=O)NCC(=O)NCC(=O)N1CCC[C@H]1C(=O)N[C@@H](CO)C(=O)N[C@@H](CO)C(=O)NCC(=O)N[C@@H](C)C(=O)N1CCC[C@H]1C(=O)N1CCC[C@H]1C(=O)N1CCC[C@H]1C(=O)N[C@@H](CO)C(N)=O` [Example 389], the Emax stood at 92.4% at hGLP-1R (setting [5]), 82% at hGIPR (setting [7]) and 94.6% at hGIPR (setting [8]). Further, the EC50 at hGLP-1R (setting [4]) was 0.19 nM; on hGCGR (setting [4]), > 9950 nM; at hGCGR (setting [6]), > 9950 nM; on hGIPR (setting [4]) it was 0.0178 nM; on hGIPR (setting [6]) it was 1.5 nM.

In the case of `CC[C@H](C)[C@H](NC(=O)[C@H](CC(C)C)NC(=O)[C@](C)(Cc1ccc(O)cc1)NC(=O)[C@@H](CCC(=O)O)NC(=O)[C@@H](NC(=O)[C@H](Cc1ccccc1)NC(=O)[C@H](CCC(=O)O)NC(=O)C(C)(C)NC(=O)[C@H](CCC(N)=O)NC(=O)[C@H](C)NC(=O)[C@H](CCCCNC(=O)COCCOCCNC(=O)COCCOCCNC(=O)CCCCCCCCCCCCC(=O)O)NC(=O)[C@H](CCCN)NC(=O)[C@H](CC(=O)O)NC(=O)[C@H](CC(C)C)NC(=O)[C@](C)(CC(C)C)NC(=O)[C@@H](NC(=O)C(C)(C)NC(=O)[C@H](Cc1ccc(O)cc1)NC(=O)[C@H](CC(=O)O)NC(=O)[C@H](CO)NC(=O)[C@@H](NC(=O)[C@](C)(Cc1ccccc1F)NC(=O)[C@@H](NC(=O)CNC(=O)[C@H](CCC(=O)O)NC(=O)C(C)(C)NC(=O)[C@@H](N)Cc1ccc(O)cc1)[C@@H](C)O)[C@@H](C)O)[C@@H](C)CC)[C@@H](C)CC)C(=O)N[C@@H](CCCCNC(=O)COCCOCCNC(=O)COCCOCCNC(=O)CCCCCCCCCCCCC(=O)O)C(=O)NCC(=O)NCC(=O)N1CCC[C@H]1C(=O)N[C@@H](CO)C(=O)N[C@@H](CO)C(=O)NCC(=O)N[C@@H](C)C(=O)N1CCC[C@H]1C(=O)N1CCC[C@H]1C(=O)N1CCC[C@H]1C(=O)N[C@@H](CO)C(N)=O` [Example 388], the Emax worked out at 95.4% at hGLP-1R (setting [5]), 82.1% on hGIPR (setting [7]) and 98.3% at hGIPR (setting [8]). Also, the concentration giving a half-maximal response (EC50) on hGLP-1R (setting [4]) is 0.292 nM; at hGLP-1R (setting [6]), 6.31 nM; at hGCGR (setting [4]) it was > 9950 nM; at hGCGR (setting [6]) it was > 9950 nM; at hGIPR (setting [4]) it was 0.0103 nM.

For orientation: EC50 means the concentration that produces a half-maximal response. By Emax is commonly meant the maximal effect, on the per cent scale that the assay sets.
